Measured values reported in patent US20250375441A1, “ONCOLYTIC THERAPY WITH A DUAL HDAC3 AND HDAC8 TARGETING AGENT” (priority 2024, published 2025).

Tests used:
HDAC2 = HDAC2 (Homo sapiens, UniProt Q92769); assay: ZEBRA flow cytometry in cells overexpressing FLAG-HDAC2; conditions: HH514-16, 1 μM YX968 or 3 mM NaB, 24 hours after treatment, N=3
[1] = system: EBV-positive HH514-16 Burkitt lymphoma cell line; assay: ZEBRA staining by flow cytometry (EBV lytic reactivation); format: cell-based; conditions: HH514-16, varying concentrations, 24 hours, vs DMSO (0.1%)
Text: Cells were harvested, fixed and permeabilized, stained with a monoclonal antibody to the viral latent-to-lytic switch protein ZEBRA (Bam Z EBV Replication Activator), and examined by flow cytometry. ZEBRA is an early lytic protein of EBV, encoded by BZLF1, that drives the lytic cascade. Cells were stained in parallel with an isotype-matched control antibody for placement of gates.

[2] = system: EBV-positive HH514-16 Burkitt lymphoma cell line; assay: qPCR of late lytic gene BFRF3; format: cell-based; conditions: HH514-16, varying concentrations, 48 hours, vs DMSO (0.1%), N=3
Procedure: Cells were harvested, RNA was extracted, RNA was converted to cDNA, and qPCR was performed. Expression of BFRF3, a late lytic gene, is increased (FIG. 2). […] Progression of the lytic cycle to late lytic gene expression indicates availability of the early gene product needed to activate ganciclovir. N=3 biological replicates.

HH514-16 cells = assay: Cell death after exposure; format: cell-based; conditions: 1 μM, 72 hours, vs DMSO (0.1%), N=2
[3] = system: lymphoma cell line BC1 latently infected with KSHV; format: cell-based
HDAC1 = HDAC1 (Homo sapiens, UniProt Q13547); assay: ZEBRA flow cytometry in cells overexpressing HDAC1-FLAG; conditions: HH514-16, 1 μM YX968, 24 hours after treatment, N=3
BZLF1 promoter = assay: H3K27Ac chromatin immunoprecipitation and qPCR at the BZLF1 promoter; conditions: HH514-16, 1 μM, 12 hours, vs DMSO (0.1%)
EBV = EBV viral load by qPCR for BALF5, normalized to 18S; format: cell-based; conditions: HH514-16, 1 μM YX968 for 18 hours, then ganciclovir 40 μM; vs no ganciclovir, N=2
Procedure: Ganciclovir was then added at a concentration of 40 μM. Cells were then centrifuged, DNA was extracted, and qPCR for BALF5—a single copy EBV gene—was then used to determine the viral load of EBV in the cells. The ribosomal gene 18S was used as the control to normalize for the number of cells collected. […] N=2 biological replicates.

Chain of HDAC2 (Q92769 whole entry): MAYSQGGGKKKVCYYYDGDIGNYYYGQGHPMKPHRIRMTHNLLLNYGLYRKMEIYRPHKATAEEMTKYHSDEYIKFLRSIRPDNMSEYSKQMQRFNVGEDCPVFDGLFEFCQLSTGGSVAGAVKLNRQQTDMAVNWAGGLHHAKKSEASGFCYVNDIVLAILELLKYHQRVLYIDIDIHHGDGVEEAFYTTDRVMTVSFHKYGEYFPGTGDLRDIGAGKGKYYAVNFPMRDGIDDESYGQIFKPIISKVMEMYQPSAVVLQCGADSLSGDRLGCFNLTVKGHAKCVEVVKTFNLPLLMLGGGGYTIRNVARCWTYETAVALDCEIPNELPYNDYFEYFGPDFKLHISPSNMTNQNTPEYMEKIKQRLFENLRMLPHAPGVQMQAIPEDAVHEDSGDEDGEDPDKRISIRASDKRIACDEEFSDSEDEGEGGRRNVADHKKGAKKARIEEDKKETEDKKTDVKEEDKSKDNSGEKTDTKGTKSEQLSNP
Chain of HDAC1 (Q13547 whole entry): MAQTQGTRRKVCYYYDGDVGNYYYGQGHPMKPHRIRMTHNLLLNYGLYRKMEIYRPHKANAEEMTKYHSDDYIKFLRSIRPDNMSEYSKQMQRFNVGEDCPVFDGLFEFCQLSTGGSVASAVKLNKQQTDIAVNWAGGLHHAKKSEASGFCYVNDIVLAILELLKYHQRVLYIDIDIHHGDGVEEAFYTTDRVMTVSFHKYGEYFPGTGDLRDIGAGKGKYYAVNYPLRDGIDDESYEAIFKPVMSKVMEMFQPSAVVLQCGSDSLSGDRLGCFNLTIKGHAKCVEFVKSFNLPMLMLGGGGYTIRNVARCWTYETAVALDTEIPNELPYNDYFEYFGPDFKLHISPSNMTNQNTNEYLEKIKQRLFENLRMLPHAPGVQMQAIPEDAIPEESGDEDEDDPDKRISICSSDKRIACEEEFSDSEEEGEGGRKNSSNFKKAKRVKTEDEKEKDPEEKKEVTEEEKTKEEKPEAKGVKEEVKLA

CCCC(=O)[O-].[Na+] [NaB, sodium butyrate, reference compound]
ZEBRA expression post-induction, HDAC2 overexpressing vs not overexpressing cells (HDAC2): less likely to express ZEBRA

CCCNNC(=O)c1ccc(N2CCN(CCCCCCCC(=O)N[C@H](C(=O)N3C[C@H](O)C[C@H]3C(=O)N[C@@H](C)c3ccc(-c4scnc4C)cc3)C(C)(C)C)CC2)cc1 [YX968]
levels of ZEBRA (EBV switching to lytic phase) [1]: increased levels of ZEBRA
expression of BFRF3, a late lytic gene [2]: increased
cells left alive (HH514-16 cells): significantly fewer cells left alive
expression of immediate early gene RTA [3]: increases in expression
number of cells that expressed ZEBRA, HDAC1 overexpressing (FLAG positive) vs FLAG negative (HDAC1): no significant change
ZEBRA expression post-induction, HDAC2 overexpressing vs not overexpressing cells (HDAC2): less likely to express ZEBRA
amount of acetylated H3K27 at the BZLF1 promoter (fold enrichment vs control IgG) (BZLF1 promoter): statistically significant increase

Nc1nc(O)c2ncn(COC(CO)CO)c2n1 [ganciclovir]
viral load of EBV (EBV): significantly lower
